How the values were obtained:
hamsters = details: after STZ treatment; cited from earlier work
isolated pig islets = experiment: In vitro islet functionality (24 hr incubation at G5, G15, G15+Fsk; insulin/glucagon RIA); assay type: cell-based; details: for G15/G5 ratio of insulin secretion: native islets 1.16; for glucagon content, fold vs native islets: 50 mg/kg treated islets; for insulin secretion, fold vs 50 mg/kg treated islets / insulin secretion, fold vs native islets: islets from pigs treated with 30 mg/kg STZ; for glucagon secretion, fold in comparison to 0 mg/kg / glucagon secretion, fold in comparison to 30 mg/kg: islets from pigs treated with 50 mg/kg STZ
Protocol: The following steps were performed with the samples kept on ice. […] The samples were then sonicated 4×20 seconds (Sonifier B 12 [Branson Sonic Power Company, Danbury, Conn., USA]) and centrifugated 10 minutes at 4° C. at 1500 rpm. The first supernatant formed was removed and kept at −20° C. […] The samples were then kept at −20° C. overnight. After a step of centrifugation 10 minutes at 4° C. at 1500 rpm, the second supernatant was removed and kept at −20° C. […] The three supernatants were then pooled and constituted the pancreas extract. Human insulin specific RIA KIT and Glucagon RIA KIT (Millipore, Billerica, Mass., USA) were used for the determination of the hormonal content in human/pig pancreatic extractions as well as in isolated islets (see below). The content of insulin and glucagon in the extracts was performed following the instructions of the manufacturer. […] After incubation overnight at room temperature, 1 mL of precipitating reagent were added, followed by incubation 20 minutes at 4° C. The samples were then centrifuged 20 minutes at 2000-3000×g at 4° C.
Three replicates per concentration were performed. Media were thereafter recovered for insulin and glucagon quantification and islets were transferred in acid-ethanol for hormones extraction and quantification by radioimmuno-assay (see above).

pigs = experiment: Intravenous glucose tolerance test (IVGTT) in STZ-injected pigs; assay type: in vivo, pig
Protocol: […] STZ was solubilised in citrate buffer (25% v/v Na citrate, 23% v/v citric acid, 52% v/v H2O, pH 4.5) and filtered before injection in the external jugular vein (Dufrane, Transplantation, 2006).
Intravenous glucose tolerance tests (IVGTTs) were performed prior and 3 months after STZ injection under general anesthesia (induction by Zoletil (VIRBAC, Carros, France) IM at a dose of 6 mg/kg, maintained by intubation and inhalation of Enflurane (0-1.5%), nitrous oxide and oxygen. A catheter was introduced in the extern jugular vein and a solution of 0.5 g glucose/kg was injected. Blood samples were taken prior and 1, 3, 5, 10, 20, 30, 60, 90 minutes after complete injection of glucose. Glycaemia was measured on these samples (AccuChek, Roche, Brussels, Belgium) and serum was conserved for radioimmuno assay (RIA) quantifications (insulin, c-peptide).

monkeys = details: cited from earlier work
pig pancreatic islets = experiment: Histomorphometry of pancreatic islets prior to isolation (alpha/beta cells) after STZ; assay type: in vivo
Protocol: Five doses (0, 30, 50, 75, 100 mg/kg) of filter-sterilized Streptozotocin (STZ) (Sigma, Bornem, Belgium) were tested. STZ was solubilised in citrate buffer (25% v/v Na citrate, 23% v/v citric acid, 52% v/v H2O, pH 4.5) and filtered before injection in the external jugular vein (Dufrane, Transplantation, 2006).
The cellular composition of islets was determined by immunohistochemistry in small samples of human and pig pancreas taken during dissection of the gland. After overnight fixation in formol at room temperature, the small biopsies were embedded in paraffin and cut in 5 μm sections. These sections were thereafter deparaffinized, rehydrated and washed with a solution of Tris-HCl-Buffered solution 0.05 mol/L (TBS, pH 7.4). After inactivation of endogenous peroxidase by a 30-minute incubation in 0.3% H2O2, the sections were incubated with 10% normal goat serum (NGS) in TBS for 30 minutes. The sections were then incubated overnight at 4° C. with glucagon rabbit polyclonal antibody (BD Bioscience, Erembodegem, Belgium) diluted at 1:100. After washes in TBS, the slides were incubated for 30 minutes with anti-rabbit-IgG (1:500) and these antibodies detected by EnVision anti-rabbit system (Dako A/S, Glostrup, Denmark) for 1 hour at room temperature. […] The glucagon staining was followed by the detection of the β-cells by alkaline phosphatase anti-alkaline phosphatase system (APAAP). After washing, aspecific sites were again inhibited by a 30 minutes incubation with 10% normal goat serum (NGS) in TBS. The slides were thereafter incubated overnight with mouse insulin monoclonal antibody (Abcam, Cambridge, UK) diluted at 1:800.
Islets from human and pig pancreas were compared for cellular proportion and geometric distribution of α and β cells (centre/periphery). Following the islets size, 3 groups of 5 islets (50-99, 100-149 and 150-200 μm) were compared in native/modified young pig versus human pancreas.
The number of small β-cell clusters (≦3 insulin-immunoreactive cells) in the total area of the slide was also assessed. The number of these clusters was manually counted through the entire slide. The area of the slide was measured with ImageJ 1.43i software after capture of pictures of slides with a camera Nikon Coolscan 5000, accessory FH-G1) and calibrated with a stage micrometer to correspond to the number of pixels evidenced on the image analyser.

[1] = STZ 50 mg/kg, by linear regression
[2] = STZ 75 mg/kg, islets of 50-100 μm, prior to isolation

For `CN(N=O)C(=O)N[C@H]1C(O)O[C@H](CO)[C@@H](O)[C@@H]1O` (mixture of isomers) [STZ, Streptozotocin], the glucagon content (hamsters) is listed as “increased”, the “stimulation index increase in comparison to native islets” value (isolated pig islets; 30 mg/kg STZ) is listed as 45% and the “G15/G5 ratio of insulin secretion” value (isolated pig islets; 30 mg/kg STZ-treated islets) is listed as 1.68. The “insulin content, times more than native islets” value (isolated pig islets; 30 mg/kg STZ, G5 stimulation) was 3.3 times, the “insulin content, times more than native islets” value (isolated pig islets; 30 mg/kg STZ, G15 stimulation) was 2.5 times and the “stimulation index increase in comparison to native islets” value (isolated pig islets; 50 mg/kg STZ) was 28%. The “G15/G5 ratio of insulin secretion” value (isolated pig islets; 50 mg/kg STZ-treated islets) was 1.49, the “insulin content, times higher than native islets” value (isolated pig islets; 50 mg/kg STZ, G5 stimulation) was 1.5 times and the “insulin secretion increase in comparison with native pig islets” value (isolated pig islets; 50 mg/kg STZ, G5 stimulation) was 1.3 times. For the same compound, the “insulin content, times higher than native islets” value (isolated pig islets; 50 mg/kg STZ, G15 stimulation) was 1.4 times, the “insulin secretion increase in comparison with native pig islets” value (isolated pig islets; 50 mg/kg STZ, G15 stimulation) was 1.4 times and the “glucagon content, fold vs native islets” value (isolated pig islets; G5) was 7.9 ×. The “glucagon content, fold vs native islets” value (isolated pig islets; G15 stimulation) was 10.4 ×, the “increase of the secretion of glucagon by isolated pig islets” value (isolated pig islets; after 30-50 mg/kg STZ) was 1.3 to 3.0 × and the “increase of insulin release” value (isolated pig islets; islet remodeling with low doses of STZ) was 1.29 to 2.13 ×. For the same compound, the “glucagon content, times higher than native islets” value (isolated pig islets; islets from 30 mg/kg treated pigs, G5-G15 stimulations) was 4.4 times, the “insulin secretion, fold vs 50 mg/kg treated islets” value (isolated pig islets; G5 stimulation) was 1.6 × and the “insulin secretion, fold vs native islets” value (isolated pig islets; G5 stimulation) was 2.1 ×. For the same compound, the “insulin secretion, fold vs 50 mg/kg treated islets” value (isolated pig islets; G15 stimulation) was 1.5 ×, the “insulin secretion, fold vs native islets” value (isolated pig islets; G15 stimulation) was 2.1 × and the “glucagon secretion, fold in comparison to 0 mg/kg” value (isolated pig islets; G5 stimulation) was 2.5 ×. For the same compound, the “glucagon secretion, fold in comparison to 30 mg/kg” value (isolated pig islets; G5 stimulation) was 2.0 ×, the “glucagon secretion, fold in comparison to 0 mg/kg” value (isolated pig islets; G15 stimulation) was 3.0 × and the “glucagon secretion, fold in comparison to 30 mg/kg” value (isolated pig islets; G15 stimulation) was 1.6 ×. The “AUC for IVGTT curves” value (pigs; STZ 150 mg/kg) was “significant higher AUC”, the “glucose metabolism (IVGTT curves)” value (pigs; STZ 30, 50, 75 and 100 mg/kg, single injection, IVGTT 3 months after, vs control animals) was “not sufficient to induce dysfunction in glucose metabolism” and the “glucose uptake (IVGTT)” value (pigs; STZ 30-50 mg/kg) was “did not affect glucose uptake”. The “number of α-cells” value (monkeys; after STZ treatment, monkeys) was “increased”, the “increase of glucagon mass” value (monkeys; after long-term diabetes (>53 days), treated primates) was ~89% and the “theoretical increase in the proportion of α cells” value (pig pancreatic islets; [1]) was 30%. The “theoretical reduction of the proportion of β cells” value (pig pancreatic islets; [1]) was 30%, the “number of alpha cells per islet in comparison to humans” value (pig pancreatic islets; [2]) was “higher number of alpha cells” and the “number of beta cells per islet in comparison to humans” value (pig pancreatic islets; [2]) was “lower number of beta cell”. The “number of beta cells per islet in comparison to humans” value (pig pancreatic islets; STZ 100 mg/kg, islets of 50-100 μm, prior to isolation) was “lower number of beta cells”, the “number of alpha cells per islet in comparison to humans” value (pig pancreatic islets; STZ 30-50 mg/kg, islets of 50-100 μm and 150-200 μm, prior to isolation) was “lower number of alpha cells per islet” and the “alpha cell proportion in comparison to human islets” value (pig pancreatic islets; STZ 30-50 mg/kg, large islets (150-200 μm), prior to isolation) was “lower alpha cell proportion”. For the same compound, the “proportion of alpha cells per islet in comparison to humans” value (pig pancreatic islets; STZ 75-100 mg/kg, each islet size, prior to isolation) was “higher proportion of alpha cells”, the “beta cell regeneration (from duct or exocrine tissue)” value (pig pancreatic islets; STZ-treated pig pancreas) was “No sign of beta cell regeneration” and the “number of α and β cells per islet” value (pig pancreatic islets; from doses of 30 mg/kg STZ, prior to isolation) was “increased significantly”.

— patent US20130336940A1, “MODIFIED PIG ISLETS FOR DIABETES TREATMENT” (UNIVERSITE CATHOLIQUE DE LOUVAIN, priority 2011, published 2013)
